Laboratory results taken from patent US7803375B2, “Methods and compositions for treating conditions of the eye” (Massachusetts Eye and Ear Infirmary, priority 2005, dated 2010).

Assays:
[1] = typical; cited from earlier work
Fas receptor = test: Retinal levels of Fas receptor after verteporfin PDT; type: in vivo; settings: rat retina, FIG. 3

Row | Compound | persistence in the target neovasculature [1] | retinal levels of the apoptotic death receptor Fas (Fas receptor)
1 | C=Cc1c(C)c2cc3nc(c(CC(=O)N[C@@H](CC(=O)O)C(=O)O)c4[nH]c(cc5nc(cc1[nH]2)C(C)=C5CC)c(C)c4C(=O)O)[C@@H](CCC(=O)O)[C@@H]3C [N-aspartyl chlorin e6] | about twenty | 
2 | CC(=O)[O-].CC(=O)[O-].CCc1c(CC)c2cc3nc(cnc4cc(OCCOCCOCCOC)c(OCCOCCOCCOC)cc4ncc4nc(cc1[n-]2)C(CCCO)=C4C)C(C)=C3CCCO.O.[Lu+3] [lutetium texaphyrin] | about twenty | 
3 | O=C([O-])c1c(Cl)c(Cl)c(Cl)c(Cl)c1-c1c2cc(I)c(=O)c(I)c-2oc2c(I)c([O-])c(I)cc12.[Na+].[Na+] [rose bengal] | about ten | 
4 | benzoporphyrin derivative | about fifty | 
5 | verteporfin |  | increases
